Results reported in patent US20200181284A1, “EPIGENETIC INHIBITORS FOR SENSITIZING HEMATOLOGIC OR OTHER MALIGNANCIES TO GLUCOCORTICOID THERAPY” (UNIVERSITY OF SOUTHERN CALIFORNIA, priority 2017, published 2020).
“Also recorded” adds a separate entry of the source. One block for each compound: values may come before it.

Assays:
[1] = target: T1, hG9a (Homo sapiens, UniProt Q96KQ7); assay: Methylation of HA-hG9a in Cos-7 cells (pan met-K immunoprecipitation/immunoblot); format: cell-based, African green monkey; conditions: Cos-7 cells, 24 h
T1 construct: transfected with a plasmid encoding full length HA-hG9a and treated with 2 μM UNC0646; expressed in transfected cells; host or cells: Cos-7
T1 sequence (Q96KQ7 1-1210): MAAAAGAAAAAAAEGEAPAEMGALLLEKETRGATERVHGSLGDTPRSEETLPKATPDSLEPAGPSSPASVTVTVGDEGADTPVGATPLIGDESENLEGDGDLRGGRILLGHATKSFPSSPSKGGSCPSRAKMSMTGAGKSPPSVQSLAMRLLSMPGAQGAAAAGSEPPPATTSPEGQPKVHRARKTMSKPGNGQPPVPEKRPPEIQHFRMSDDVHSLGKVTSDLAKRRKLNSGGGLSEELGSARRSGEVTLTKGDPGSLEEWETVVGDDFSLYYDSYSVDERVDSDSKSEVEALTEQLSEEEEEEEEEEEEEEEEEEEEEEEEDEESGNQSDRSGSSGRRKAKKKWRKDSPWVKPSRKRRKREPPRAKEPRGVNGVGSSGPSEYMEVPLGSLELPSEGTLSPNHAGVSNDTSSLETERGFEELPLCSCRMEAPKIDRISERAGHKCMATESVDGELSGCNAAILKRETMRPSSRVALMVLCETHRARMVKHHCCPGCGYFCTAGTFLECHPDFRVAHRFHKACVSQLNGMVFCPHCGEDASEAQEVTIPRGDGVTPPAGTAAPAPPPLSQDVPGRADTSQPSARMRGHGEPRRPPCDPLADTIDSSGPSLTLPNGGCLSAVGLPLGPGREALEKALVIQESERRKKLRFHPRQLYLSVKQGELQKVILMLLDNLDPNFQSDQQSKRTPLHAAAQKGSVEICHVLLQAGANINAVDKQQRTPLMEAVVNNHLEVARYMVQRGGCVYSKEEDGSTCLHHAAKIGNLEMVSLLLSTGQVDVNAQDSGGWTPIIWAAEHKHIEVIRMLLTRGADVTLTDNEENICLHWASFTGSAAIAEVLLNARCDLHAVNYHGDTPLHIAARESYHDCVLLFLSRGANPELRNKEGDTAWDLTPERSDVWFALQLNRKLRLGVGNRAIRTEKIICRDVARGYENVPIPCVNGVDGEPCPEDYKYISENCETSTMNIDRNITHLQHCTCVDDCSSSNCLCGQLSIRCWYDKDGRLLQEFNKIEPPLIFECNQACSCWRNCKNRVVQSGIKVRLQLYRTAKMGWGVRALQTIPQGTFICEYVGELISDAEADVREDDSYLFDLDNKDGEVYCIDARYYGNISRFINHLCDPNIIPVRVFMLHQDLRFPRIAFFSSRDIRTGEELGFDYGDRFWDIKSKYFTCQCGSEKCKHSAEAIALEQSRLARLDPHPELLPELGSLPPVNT
Procedure: Cells were transiently transfected (where indicated) using Lipofectamine 2000 (Invitrogen) with 5 μg each of the indicated plasmids according to the manufacturer's protocol. […] Protein extracts were incubated with 1 μg of the indicated primary antibodies overnight at 4° C. with shaking. Protein A/G Plus Agarose (Santa Cruz sc-2003) beads were added and the mixture was incubated 2 hr at 4° C. The immunoprecipitates were separated on SDS-PAGE. Immunoblotting was conducted with primary antibodies against HA epitope (3F10 Roche Applied Science); G9a (G6919), FLAG (F1804), (3-actin (A5441), or GAPDH (G9545) from Sigma; aurora kinase B (ab2254), HP1γ (ab10480), HP1γ (ab56978), phospho-593-HP1γ (ab45270) or pan methyllysine (ab23366) from Abcam; GR (sc-8992) from Santa Cruz; GLP (09-078), or pan phospho-threonine (AB1607) from Millipore; phospho-S211-GR (#4161), H3K9me3 (#13969), H3S10ph (#53348), Histone H3 (#4499) from Cell signaling; or E-cadherin (610182) from BD transduction laboratories. Secondary antibodies from Santa Cruz Biotechnology (anti-rat) and Promega (anti-rabbit and anti-mouse) were used for chemiluminescence detection using Super Signal West Dura (Thermo Scientific) for proteins with low expression levels and ECL prime detection reagent (Amersham) for all other proteins according to the manufacturers' instructions. In immunoprecipitation experiments 3% of the input of each sample was analyzed by immunoblot using the antibodies listed.
Lysates were immunoprecipitated (IP) with pan met-K antibody and immunoblotted with HA antibody (top), or the usage of the two antibodies was reversed (bottom). Expression of HA-tagged proteins and β-actin (loading control) in the unfractionated extracts is shown at the bottom (Input). For FIG. 17D, Cos-7 cells were transfected with a plasmid encoding full length HA-hG9a and treated with 2 μM UNC0646 or vehicle DMSO for 24 h. Lysates were immunoprecipitated with pan met-K antibody and immunoblotted with HA antibody (top), or the usage of the two antibodies was reversed (bottom).
Lysates were immunoprecipitated with pan met-K antibody and immunoblotted with HA antibody (top).

[2] = system: NALM6 cells; assay: Cell death assay (Presto Blue, 72 h) with dex plus inhibitor; format: cell-based, human; conditions: NALM-6, 16 nM Alisertib, 72 h
Procedure: Cells were plated in CellStar low evaporation lid 96-well round-bottom plate at a density of 100,000 cells/ml. Directly after plating, cells were treated in triplicate with serial dilutions of dexamethasone or vehicle control (0.1% ethanol). After 72 h, cell viability of each well was analyzed in duplicate using the Presto Blue Assay Reagent (Life Technologies). Fluorescence was measured and data were analyzed with Prism6 software.
FIGS. 40A, 40B, 40C, 40D-1, 40D-2, 40D-3, and 40D-4 show Aurora kinase B inhibitors sensitizing NALM6 cells to GC-induced cell death. As shown in FIGS. 40A and 40B, NALM6 cells were treated with the indicated dex concentration in addition to 0.75 μM ZM447439 (FIG. 40A), 16 nM AZD2811 (FIG. 40B), or equivalent volume of vehicle DMSO for 72 h, and cell survival was measured by a fluorescence metabolic assay. In each condition, the value measured with dex was normalized to the fluorescence value measured with ethanol. Percentage of survival is shown as the mean±SEM of 4 independent experiments and p-values for individual dex concentrations were calculated using a paired t-test. *p≤0.05, **p≤0.01, * * *p≤0.001. F-test comparing the two curves: p≤0.001. Insets show the EC50s that were calculated as the concentration at which half the cells remained alive, compare to vehicle controls. Error bars depict the SEM of 4 independent experiments and p-values were calculated to compare AURKB inhibitor treatment to DMSO using a paired t-test ** p≤0.01, * * *p≤0.001. […] The indicated proteins were then examined by immunoblot. As shown in FIGS. 40D-1, 40D-2, 40D-3, and 40D-4, NALM6 cells pre-treated with AZD2811 (16 nM) or DMSO for 24 h, were then treated for 8 h with 100 nM dex or ethanol. mRNA levels for the indicated GR target genes were measured by RT-qPCR and normalized to β-actin mRNA levels.
FIGS. 48A, 48B, 48C, 48D, 48E, and 48F show the effect of AURKB inhibitors on EHMT2 phosphorylation and dex-induced cell death. […] In each condition, the value measured with dex was normalized to the fluorescence value measured with ethanol. Percentage of survival is shown as the mean±SEM of 4 independent experiments and p-values for individual dex concentrations were calculated using a paired t-test. *p≤0.05, **p≤0.01, * * *p≤0.001. F-test comparing the two curves: p≤0.001. EC50s were calculated as the concentration at which half the cells remained alive, compare to vehicle controls. Error bars depict the SEM of 4 independent experiments and p-value was calculated to compare ZM treatment to DMSO using a paired t-test **p≤0.01, * * *p≤0.001. […] EC50s were calculated as the concentration at which half the cells remained alive, compare to vehicle controls. Error bars depict the SEM of 4 independent experiments and p-value was calculated to compare alisertib treatment to DMSO using a paired t-test. […] (E-F) RCH-ACV cells were treated with the indicated dex concentration in addition to 0.75 μM ZM447439 (FIG. 48E), 16 nM AZD2811 (FIG. 48F), or DMSO for 72 h, and cell survival was measured by a fluorescence metabolic assay. In each condition, the value measured with dex was normalized to the fluorescence value measured with ethanol. Percentage of survival is shown as the mean±SEM of 5 individual experiments and the p-value for each dex concentration was calculated using a paired t-test. *p≤0.05, **p≤0.01, * * *p≤0.001. F-test comparing the two curves: p≤0.001.
FIGS. 55A, 55B, and 55C show JIB-04 enhances GC-induced death of B-ALL cell line NALM6.

pan-methyllysine antibody signal on wild type hG9a ([1]; 40 μM): strongly decreased
SMILES: Nc1ncnc2c1ncn2C(C=O)OC(C=O)CO (stereo not drawn) [Adox, adenosine dialdehyde]

SMILES: COc1cc(Nc2ncc3c(n2)-c2ccc(Cl)cc2C(c2c(F)cccc2OC)=NC3)ccc1C(=O)O [Alisertib]
cell survival with dex [2]: not significant; also recorded: did not have any effect

SMILES: COc1cc2c(NC3CCN(C(C)C)CC3)nc(N3CCC(F)(F)CC3)nc2cc1OCCCN1CCCC1 [UNC0642]
pan-methyllysine antibody signal on wild type hG9a ([1]; 2 μM inhibitor): strongly decreased
